Laboratory results reported in patent US9469584B2, “Method for producing butanol using extractive fermentation” (Butamax Advanced Biofuels LLC, priority 2013, dated 2016).
Counter-ions that a name gives are not always drawn.

Tested on: not listed separately
Assay: Density of the pure solvent
Type: physicochemical
Settings: not given
Method: Wt % of isobutanol in each layer was reported. The density of the pure solvent was also reported. […] Wt. iBuOH (mg) was calculated by wt % i-BuOH×0.5×density of pure solvent. For the aqueous solutions the density of both the pure water and salt solutions were assumed to be 1.0 g/ml. Kd was calculated both from concentration of i-BuOH in the organic/concentration of i-BuOH in the aqueous layer. It was calculated both from the w/w data and w/v data. The sum of the amounts of isobutanol found in both layers was calculated as a check on the data.
nonyl phenol showed a density of 0.937 g/mL. For Xylene, the density was 0.879 g/mL. CCCCCCCCOC(=O)c1ccccc1C(=O)OCCCCCCCC [Dioctyl phthlate] gave a density of 0.985 g/mL. Work on CCCCCl [chlorobutane] yielded a density of 0.886 g/mL.

Same assay, conditions: pure solvent
Molecule CCCCC(CC)COC(=O)/C=C\C(=O)OCC(CC)CCCC (stereo not drawn) [Bis(2-ethylhexyl) maleate] has a density of 0.944 g/mL. For CCCCCCOCCCCCC [Hexyl Ether], the density was 0.793 g/mL. For CCCCC(CC)COC(=O)CCCCCCCCC(=O)OCC(CC)CCCC (stereo not drawn) [bis(2-ethylhexyl)sebacate], the density was 0.914 g/mL. CC1COC(=O)O1 (stereo not drawn) [propylene carbonate] gave a density of 1.2 g/mL. In the case of CC(C)CCCC(C)CCO (stereo not drawn) [3,7-dimethyl-1-octanol], the density is reported as 0.828 g/mL. Molecule CCCCC(CC)CO (stereo not drawn) [2-Ethyl-1-hexanol] has a density of 0.833 g/mL. For CCCCC(CC)COP(=O)(O)OCC(CC)CCCC (stereo not drawn) [Bis(2-ethylhexyl) phosphate], the density was 0.965 g/mL. CCCCCCCC/C=C\CCCCCCCCO [oleyl alcohol, reference compound] showed a density of 0.849 g/mL. Molecule CC(C)=CCCC(C)=CCCC(C)=CCO [Farnesol] has a density of 0.89 g/mL. CCCCCCCCC(CO)CCCCCC (stereo not drawn) [2-Hexyl-1-decanol (Isofol 16), 2-Hexyl-1-decanol] showed a density of 0.836 g/mL. With CCCCCCCCOC(=O)c1ccc(C(=O)OCCCCCCCC)cc1 [dioctyl terephthalate] the density was 0.986 g/mL. For CCCCCCC(CO)CCCC (stereo not drawn) [2-butyl-1-octanol], the density was 0.833 g/mL. With CCCCC(CC)COC(=O)CCCCC(=O)OCC(CC)CCCC (stereo not drawn) [bis(2-ethylhexyl)adipate] the density was 0.925 g/mL. With CCCCCCCCCCCC(=O)OCCCC [butyl dodecanoate] the density was 0.855 g/mL. CC(C)CCOCCC(C)C [i-Amyl Ether] gave a density of 0.78 g/mL. In the case of CC(CCO)CC(C)(C)C (stereo not drawn) [3,5,5-trimethyl-1-hexanol], the density is reported as 0.824 g/mL. CCCCCCOC(=O)c1ccccc1O [hexyl salicylate] showed a density of 1.04 g/mL.

Tested on: ethanologen (Ethanol Red)
Assay: not given
Settings: not given
In the case of nonyl phenol, the “Glucose (g/L) 5.00 hrs Run 1” value is reported as 20.3/20.3 g/L, the “Glucose (g/L) 5.00 hrs Run 2” value is reported as 20.3/20.3 g/L and the “Glucose (g/L) […] Run 1” value is reported as 20.6/20.0 g/L. For the same molecule, the “Glucose (g/L) […] Run 2” value was 20.6/20.0 g/L. For CCCCC(CC)COP(=O)(O)OCC(CC)CCCC (stereo not drawn) [Bis(2-ethylhexyl) phosphate], the “Glucose (g/L) 5.00 hrs Run 1” value was 20.3/20.6 g/L, the “Glucose (g/L) 5.00 hrs Run 2” value was 20.3/20.6 g/L and the “Glucose (g/L) […] Run 1” value was 20.0/20.2 g/L. For the same molecule, the “Glucose (g/L) […] Run 2” value was 20.0/20.2 g/L.

Same assay, conditions: Saccharomyces cerevisiae
For CCCCC(CC)COC(=O)CCCCC(=O)OCC(CC)CCCC (stereo not drawn) [bis(2-ethylhexyl)adipate], the “Glucose (g/L) 5.50 hrs Run 1” value was 0.0/0.0 g/L, the “Glucose (g/L) 5.50 hrs Run 2” value was 0.0/0.0 g/L and the “Glucose (g/L) […] Run 1” value was 0.0/0.0 g/L. For the same molecule, the “Glucose (g/L) […] Run 2” value was 0.0/0.0 g/L.
